We go through three molecules from publication PMC8703807, “Synthesis of ^68Ga-Labeled cNGR-Based Glycopeptides and In Vivo Evaluation by PET Imaging” (Pharmaceutics, 2021).

Series [1] has as its system B16-F10 melanoma tumor-bearing mice. Briefly: In vivo PET imaging of B16-F10 melanoma tumor-bearing mice. As to conditions: 70 min after i.v. injection; for identification of subcutaneous B16-F10 tumors on PET images: qualitative. As to the method:
(§1) For subcutaneous B16-F10 (mouse melanoma) tumor induction, C57BL/6 mice (n = 20) were anaesthetized with 3% isoflurane (Forane, AbbVie) using a dedicated small animal anesthesia device (Tec3 Isoflurane Vaporizer, Eickemeyer, UK) and mice were injected subcutaneously with 3 × 10^6 B16-F10 cells in 150 µL of sterile saline into the left shoulder area of the animals. In vivo and ex vivo experiments were carried out 10 ± 1 days after subcutaneous injection of tumor cells at the tumor volume of 80 ± 2 mm^3.
(§2) For in vivo biodistribution studies B16-F10 tumor-bearing mice were anaesthetized with 3% isoflurane and were injected with 6.6 ± 0.3 MBq [^68Ga]-11, or [^68Ga]-3, or [^68Ga]-9 or [^68Ga]-10 in 150 μL saline via the lateral tail vein 10 ± 1 days after subcutaneous injection of tumor cells. 20 min static PET scans were performed 70 min after intravenous injection of the radiotracers from the tumorous area using the preclinical miniPET-II device (University of Debrecen, Faculty of Medicine, Department of Medical Imaging, Division of Nuclear Medicine and Translational Imaging). After image reconstruction, volumes of interest (VOIs) were manually drawn around the examined regions using the BrainCAD image analysis software and quantitative standardized uptake values (SUVs) values were calculated.
(§3) Figure 1 In vivo PET imaging of [^68Ga]-11, [^68Ga]-3, [^68Ga]-9 and [^68Ga]-10 accumulation in B16-F10 tumor-bearing mice 10 ± 1 days after tumor cell inoculation and 70 min after intravenous injection of the radiotracers (A panel). Red arrows: B16-F10 tumor; black arrows: liver. (B,C) panels: quantitative SUVmean and tumor-to-background (muscle) ratio (T/M) analysis of tracer uptake in mice (n = 3/radiopharmaceutical) 70 min post-injection. Significance level: p ≤ 0.05 (*). SUV: standardized uptake value; T/M: tumor-to-muscle ratio. SUV values are presented as mean ± SD.

Assay in series [2]: as above
As to conditions: C57BL/6, mouse, in vivo, iv, total radioactivity. As to the method:
as §1, §2, §3

A short description of series [3]: Determination of logP value (octanol/water partition coefficient). Type of series: physicochemical. As to the method: The mixture was shaken with a vortex shaker for 5 min and centrifugated (9000 rpm) for 5 min. A 3 × 20 µL amount of both solvents was pipetted into a vial. The radioactivity of the fractions was determined with a gamma counter.
Series [4] has as its system B16-F10 tumor-bearing mice. The following applies: ex vivo, 90 min after injection, compared to the other investigated molecules. As to the method: as §1
Where [5] appears, read: tumor SUVmean, B16-F10 tumor, 70 min after i.v. injection, n = 3, mean ± SD.
Where [6] appears, read: 1-octanol/water, gamma counter, read-out: octanol/water partition coefficient (logP).

Read-outs that look alike come from different tables or passages of the source. Positions of bridges follow the written chain, without caps; N, C: chain ends. Residues, ends and D or L forms follow the SMILES beside them. *: point of attachment. X1 = O=C(O)CN1CCN(CC(=O)O)CCN(C(CCC(=O)NCc2ccc(NC(=S)*)cc2)C(=O)O)CCN(CC(=O)O)CC1

On to `N=C(N)NCCC[C@@H]1NC(=O)CNC(=O)[C@H](CC(N)=O)NC(=O)[C@H](CCCCNC(=O)CCC(=O)N2Cc3ccccc3-c3c(nnn3CCCO[C@@H]3O[C@H](CO)[C@@H](O[C@@H]4O[C@H](CO)[C@H](O)[C@H](O)[C@H]4O)[C@H](O)[C@H]3NC(=S)Nc3ccc(CNC(=O)CCC(C(=O)O)N4CCN(CC(=O)O)CCN(CC(=O)O)CCN(CC(=O)O)CC4)cc3)-c3ccccc32)NC(=O)CC[C@@H](C(N)=O)NC1=O` (stereo partly shown) [[^68Ga]-9, metal not drawn], for which, in series [1] (n = 3, mean ± SD), the “liver SUVmean” value is 0.18 ± 0.01. In addition, the “identification of subcutaneous B16-F10 tumors on PET images” value (“identification” for short) in series [1] is reported as “clearly identified”. In addition, the tissue to tissue ratio at 70 min in series [2] came out at 6.01 ± 1.24. The SUV at 70 min in series [2] (setting [5]) came out at 0.11 ± 0.03 SUV. In addition, in series [3] (setting [6]), the logP was -3.68.

In the case of `N=C(N)NCCC[C@@H]1NC(=O)CNC(=O)[C@H](CC(N)=O)NC(=O)[C@H](CCCCNC(=O)CCOCCOCCOCCOCCNC(=O)CCC(=O)N2Cc3ccccc3-c3c(nnn3CCCO[C@@H]3O[C@H](CO)[C@@H](O[C@@H]4O[C@H](CO)[C@H](O)[C@H](O)[C@H]4O)[C@H](O)[C@H]3NC(=S)Nc3ccc(CNC(=O)CCC(C(=O)O)N4CCN(CC(=O)O)CCN(CC(=O)O)CCN(CC(=O)O)CC4)cc3)-c3ccccc32)NC(=O)CC[C@@H](C(N)=O)NC1=O` (stereo partly shown) [[^68Ga]-10, metal not drawn], the “radioactivity concentration in blood” value in series [4] is “higher radioactivity concentration”. Besides, in series [1], the “identification” value was “clearly identified”. In series [2], the tissue to tissue ratio at 70 min is 7.89 ± 1.31. For the same molecule, the SUV at 70 min stood at 0.1 ± 0.02 SUV in series [2] (liver SUVmean, 70 min after i.v. injection, n = 3, mean ± SD) and 0.15 ± 0.01 SUV in series [2] (setting [5]). The logP in series [3] (setting [6]) is -3.69.

In the case of `N=C(N)NCCC[C@@H]1NC(=O)CNC(=O)[C@H](CC(N)=O)NC(=O)[C@H](CCCCNC(=S)Nc2ccc(CNC(=O)CCC(C(=O)O)N3CCN(CC(=O)O)CCN(CC(=O)O)CCN(CC(=O)O)CC3)cc2)NC(=O)CC[C@@H](C(N)=O)NC1=O` (stereo partly shown) [[^68Ga]-11, metal not drawn] (K(X1)NGRE-NH2; lactam N-5), in series [1], the “identification” value was “clearly identified”. The tissue to tissue ratio at 70 min in series [2] turned out to be 5.71 ± 1.17. In addition, the SUV at 70 min was found to be 0.28 ± 0.1 SUV in series [2] (liver SUVmean) and 0.09 ± 0.03 SUV in series [2] (tumor SUVmean). For the same molecule, the logP in series [3] is -4.13.
